According to patent US9676771B2, “Compounds for inhibiting drug-resistant strains of HIV-1 integrase” (priority 2013, dated 2017):
Read-outs that look alike come from different tables or passages of the source.

Key:
HIV-1 integrase = HIV-1 integrase (Human immunodeficiency virus type 1 group M subtype B, UniProt P12497); assay: biochemical; assay type: biochemical
Summary of the method: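 Compounds or DMSO added to 20 nM DNA and 400 nM integrase in 50 mM MOPS pH 7.2, 7.5 mM MgCl2, 14 mM 2-mercaptoethanol; 2 h at 37° C, quenched with formamide/SDS loading buffer. Products resolved on gels, imaged and quantified by densitometry.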

in vitro = assay type: cell-based, human; conditions: human, 50% reduction in the level of ATP in HOS cells
Summary of the method: (§1)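 Cells exposed to compounds over a concentration range for 48 hrs at 37° C. Viability read as cellular ATP by luciferase (ATPlite) luminescence after lysis, normalised to untreated cells; CC50 derived by regression fit.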

[1] = tested on: HIV-1 constructs containing wild-type IN; assay: microbe, parasite or virus in culture; assay type: cell-based
[2] = tested on: HIV-1 constructs containing mutant IN G118R; assay: microbe, parasite or virus in culture; assay type: cell-based; conditions: Human immunodeficiency virus 1
Description: (§2) Single-Round HIV-1 Infectivity Assay.
(§3) Human embryonyl kidney cell culture cell line 293 was acquired from the American type Culture Collection (ATCC).
(§4) […]. […] The virus-containing supernatants were then harvested, clarified by low-speed centrifugation, filtrated, and diluted for preparation in infection assays. […] After compound incorporation and activation in the cell, 100 μL of virus-stock diluted to achieve a maximum luciferase signal between 0.2 and 1.5 RLUs was added to each well and further incubated at 37° C. for 48 hrs. […] Activity was normalized to infectivity in the absence of target compounds. KaleidaGraph (Synergy Software, Reading, Pa.) was used to perform regression analysis on the data. EC50 values were determined from the fit model.
(§5) pNLNgoMIVR^−ΔEnv.LUC has been described previously (Zhao et al. 2008). The integrase codon reading frame was removed from pNLNgoMIVR^−ΔEnv LUC (between KpnI and SalI sites) and placed between the KpnI and SalI sites of pBluescript II KS+. Using that construct as the wild-type template, we prepared the following HIV-1 Integrase-resistant mutants via the QuikChange II XL (Stratagene, La Jolla, Calif.) site-directed mutagenesis protocol: H51Y, T66I, E92Q, G118R, Y143R, Q148H, Q148K, N155H, R263K, G140S+Q148H, G140A+Q148K, E138K+Q148K, and H51Y+R263K. The following sense with cognate antisense (not shown) oligonucleotides (Integrated DNA Technologies, Coralville, Iowa) were used in the mutagenesis: H51Y, 5′-[…]-3; T66I, 5′-[…]-3′; E92Q, 5′-[…]-3′; G118R, 5′-[…]-3′; E138K, 5′-[…]-3; G140A, 5′-[…]-3; G140S, 5′-[…]-3′; Y143R, 5′-[…]-3′; Q148H, 5′-[…]-3′; Q148K, 5′-[…]-3; N155H, 5′-[…]-3′; R263K 5′-[…]-3′. The double mutation G140S+Q148H was constructed by using the previously generated Q148H mutant and the appropriate oligonucleotide for the 2nd mutation, G140S. The double mutation G140A+Q148K was made by using the Q148K mutant and the appropriate oligonucleotide for the 2nd mutation, G140A. The double mutation E138K+Q148K was made by using the Q148K mutant and the appropriate oligonucleotide for the 2nd mutation, E138K. The double mutation H51Y+R263K was constructed by using the previously generated H51Y mutant and the appropriate oligonucleotides for the 2nd mutation, R263K. The DNA sequence of each construct was verified independently by DNA sequence determination. The mutant integrase coding sequences from pBluescript II KS+ were then subcloned into pNLNgoMIVR^−ΔEnv LUC (between the KpnI and SalI sites) to produce the full-length mutant HIV-1 Integrase constructs. These DNA sequences were additionally checked independently by DNA sequence determination.

[3] = tested on: HIV-1 constructs containing mutant IN R263K; assay: Single-round HIV-1 infectivity assay, IN mutant R263K; assay type: cell-based; conditions: Human immunodeficiency virus 1
Description: as §2, §3, §4, §5

[4] = tested on: HIV-1 constructs containing mutant IN T66I; assay: Single-round HIV-1 infectivity assay, IN mutant T66I; assay type: cell-based; conditions: Human immunodeficiency virus 1; Table 8; read-out: EC50 (nM, IN mutants) T66I
Description: as §2, §3, §4, §5

[5] = tested on: HIV-1 constructs containing mutant IN E92Q; assay: Single-round HIV-1 infectivity assay, IN mutant E92Q; assay type: cell-based; conditions: Human immunodeficiency virus 1; Table 8; read-out: EC50 (nM, IN mutants) E92Q
Description: as §2, §3, §4, §5

[6] = tested on: HIV-1 constructs containing mutant IN H51Y; assay: Single-round HIV-1 infectivity assay, IN mutant H51Y; assay type: cell-based; conditions: Human immunodeficiency virus 1; Table 8; read-out: EC50 (nM, IN mutants) H51Y
Description: as §2, §3, §4, §5

[7] = tested on: HIV-1 constructs containing mutant IN H51Y/R263K; assay: Single-round HIV-1 infectivity assay, IN double mutant H51Y/R263K; assay type: cell-based; conditions: Human immunodeficiency virus 1; Table 8; read-out: EC50 (nM, IN mutants) H51Y/R263K
Description: as §2, §3, §4, §5

HIV-1 WT IN = assay: High growth serum assays in cells (WT); assay type: cell-based
[8] = tested on: human osteosarcoma (HOS) cells; assay: in vitro; assay type: cell-based; conditions: Table 3; 50% reduction in the level of ATP in HOS cells
Summary of the method: as §1

[9] = tested on: HIV-1 constructs containing mutant IN G140S-Q148H; assay: microbe, parasite or virus in culture; assay type: cell-based; conditions: Human immunodeficiency virus 1
Summary of the method: (§6)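 Single-round infectivity assay using luciferase-reporter pNLNgoMIVR−ΔEnv.LUC virus carrying site-directed integrase mutants, produced in 293 cells. Activity normalized to infectivity without compound; EC50 from regression fit.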

[10] = tested on: HIV-1 constructs containing mutant IN N155H; assay: microbe, parasite or virus in culture; assay type: cell-based; conditions: Human immunodeficiency virus 1
Summary of the method: as §6

[11] = tested on: HIV-1 constructs containing mutant IN Y143R; assay: microbe, parasite or virus in culture; assay type: cell-based; conditions: Human immunodeficiency virus 1
Summary of the method: as §6

[12] = Table 4, strand transfer, read-out: IC50 (Strand Transfer)
[13] = Human immunodeficiency virus 1, Table 3, WT IN, read-out: EC50 (nM, WT)
[14] = Table 8, read-out: EC50 (nM, IN mutants) G118R
[15] = Table 8, read-out: EC50 (nM, IN mutants) R263K
[16] = Human immunodeficiency virus 1, Table 8, WT IN, read-out: EC50 (nM, WT)
[17] = Table 8, read-out: EC50 (nM, IN mutants) G140S/Q148H
[18] = Table 8, read-out: EC50 (nM, IN mutants) N155H
[19] = Table 8, read-out: EC50 (nM, IN mutants) Y143R

**Q.** Which results are given for `Nc1c(C(=O)NCc2ccc(F)cc2F)c(=O)n(O)c2ncccc12` [XZ384, 4-Amino-N-(2,4-difluorobenzyl)-1-hydroxy-2-oxo-1,2-dihydro-1,8-naphthyridine-3-carboxamide]?
**A.** IC50 (HIV-1 integrase; [12]): 0.019 ± 0.002 µM; IC50 (HIV-1 integrase; Table 7, 3′-processing, read-out: IC50 (μM) 3′-P): 2.5 ± 0.3 µM; CC50 (in vitro; Table 3): > 250 µM; CC50 (in vitro; Table 6): > 250 µM; CC50 (in vitro; Table 8): > 250 µM; EC50 ([1]; Human immunodeficiency virus 1, read-out: EC50 (nM), Table 9, WT, normal 5% serum): 1.1 ± 0.66 nM; EC50 [1, 13]: 1.1 ± 0.66 nM; EC50 ([2]; Table 6, read-out: EC50 (nM, IN Mutants) G118R): 16.1 ± 4.6 nM; EC50 [2, 14]: 16.1 nM; EC50 ([3]; Table 6, read-out: EC50 (nM, IN Mutants) R263K): 6.4 ± 2.3 nM; EC50 [3, 15]: 6.4 nM; EC50 [4]: 0.6 nM; EC50 [5]: 3 nM; EC50 [6]: 1 nM; EC50 [7]: 3.2 nM; EC50 (HIV-1 WT IN; Human immunodeficiency virus 1, read-out: EC50 (nM), Table 9, 10% FBS): 0.8 ± 0.3 nM; EC50 (HIV-1 WT IN; Human immunodeficiency virus 1, read-out: EC50 (nM), Table 9, 15% FBS): 0.5 ± 0.05 nM

**Q.** Which IC50 (HIV-1 integrase; Table 4, 3′-processing, read-out: IC50 (3^+-Processing)) does the source give for `O=C(NCc1ccc(F)cc1F)c1c(NCCCCc2ccccc2)c2cccnc2n(O)c1=O` [XZ383, N-(2,4-difluorobenzyl)-1-hydroxy-2-oxo-4-((4-phenylbutyl)amino)-1,2-dihydro-1,8-naphthyridine-3-carboxamide] here?
**A.** The IC50 was 12.2 ± 2 µM.

**Q.** What about the IC50 (HIV-1 integrase; [12]) of the same molecule?
**A.** Its IC50 is 0.28 ± 0.11 µM.

**Q.** And the CC50 [8]?
**A.** The CC50 was 102 ± 8 µM.

**Q.** And the EC50 [1, 13]?
**A.** Its EC50 is 49.9 ± 13 nM.

**Q.** What about the “Si (selectivity index)” value ([1]; Table 3, ratio of CC50 to EC50) of the same molecule?
**A.** The value was 2,040.

**Q.** What about the EC50 ([9]; Table 3, G140S-Q148H double mutant, read-out: EC50 (nM, IN Mutants) SH) of the same molecule?
**A.** The EC50 was 243 ± 38.7 nM.

**Q.** What about the EC50 ([10]; Table 3, read-out: EC50 (nM, IN Mutants) N155H) of the same molecule?
**A.** Its EC50 is 116 ± 21.9 nM.

**Q.** What about the EC50 ([11]; Table 3, read-out: EC50 (nM, IN Mutants) Y143R) of the same molecule?
**A.** Its EC50 is 39.9 ± 14.7 nM.

**Q.** With `COc1cc2c(cc1Cc1cccc(Cl)c1F)c(=O)c(C(=O)O)cn2[C@H](CO)C(C)C` [EVG, elvitegravir, reference compound] as the molecule, how does the CC50 (in vitro; Table 8) read?
**A.** Its CC50 is over 250 µM.

**Q.** What about the EC50 [1, 16] of the same molecule?
**A.** The EC50 was 6.4 ± 0.8 nM.

**Q.** And the EC50 [9, 17]?
**A.** Its EC50 is 5700 nM.

**Q.** And the EC50 [10, 18]?
**A.** The EC50 was 90 nM.

**Q.** What about the EC50 [11, 19] of the same molecule?
**A.** Its EC50 is 7.9 nM.

**Q.** What about the EC50 [2, 14] of the same molecule?
**A.** The EC50 was 21 nM.

**Q.** And the EC50 [3, 15]?
**A.** The EC50 was 10 nM.

**Q.** And the EC50 [4]?
**A.** The EC50 was 66.2 nM.

**Q.** What about the EC50 [5] of the same molecule?
**A.** Its EC50 is 154 nM.

**Q.** And the EC50 [6]?
**A.** The EC50 was 4.5 nM.

**Q.** What about the EC50 [7] of the same molecule?
**A.** Its EC50 is 52.6 nM.

**Q.** Which results are given for `CC(=O)OCCCCCc1cnc2c(c1)c(NCCO)c(C(=O)NCc1ccc(F)cc1F)c(=O)n2O` [XZ439, 5-(6-((2,4-Difluorobenzyl)carbamoyl)-8-hydroxy-5-((2-hydroxyethyl)amino)-7-oxo-7,8-dihydro-1,8-naphthyridin-3-yl)pentyl acetate]?
**A.** CC50 (in vitro; Table 8): > 250 µM; EC50 [1, 16]: 5.3 nM; EC50 [9, 17]: 5.3 nM; EC50 [10, 18]: 10.3 nM; EC50 [11, 19]: 4.1 ± 1 nM; EC50 [2, 14]: 14.5 nM; EC50 [3, 15]: 3.6 nM; EC50 [4]: 1.2 nM; EC50 [5]: 3.8 nM; EC50 [6]: 7.4 nM; EC50 [7]: 15.2 nM

**Q.** Which results are given for `Cc1nnc(C(=O)NC(C)(C)c2nc(C(=O)NCc3ccc(F)cc3)c(O)c(=O)n2C)o1` [RAL, raltegravir, reference compound]?
**A.** CC50 (in vitro; Table 2): > 100 µM; CC50 (in vitro; Table 6): > 100 µM; CC50 (in vitro; Table 8): > 250 µM; EC50 ([1]; Human immunodeficiency virus 1, Table 6, WT IN, read-out: EC50 (nM, WT)): 4 ± 2 nM; EC50 [2, 14]: 35.5 nM; EC50 [3, 15]: 5.7 nM; EC50 [4]: 2.8 nM; EC50 [5]: 29.8 nM; EC50 [6]: 3.4 nM; EC50 [7]: 6 ± 2.3 nM
